Measurements from the supplement of paper PMC10307832.

How the values were obtained:
Assay in all cases: relative viability (nuclei count vs DMSO), 5 days (fraction); higher = more cells survive
[1] = tested on: 201T
Procedure, shortened: (§1)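 Relative viability equals treated-well nuclei counts divided by vehicle-well nuclei counts. Counts came from 4× images of lung cancer cell lines grown in 1536-well plates for 5 days after pin-tool dosing on the day after seeding. Dosing used one drug alone or a fixed anchor-drug dose plus five library-drug doses (not always all listed) in √10 steps, and values are medians of duplicate plates.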

[2] = tested on: BEN
Procedure, shortened: as §1

[3] = tested on: COR-L 105
Procedure, shortened: as §1

[4] = tested on: EMC-BAC-2
Procedure, shortened: as §1

[5] = tested on: H3255
Procedure, shortened: as §1

[6] = tested on: HARA
Procedure, shortened: as §1

[7] = tested on: HCC-78
Procedure, shortened: as §1

[8] = tested on: HOP-62
Procedure, shortened: as §1

[9] = tested on: LC-2-ad
Procedure, shortened: as §1

[10] = tested on: LOU-NH91
Procedure, shortened: as §1

[11] = tested on: LU99A
Procedure, shortened: as §1

[12] = tested on: LXF-289
Procedure, shortened: as §1

[13] = tested on: NCI-H1395
Procedure, shortened: as §1

[14] = tested on: NCI-H1993
Procedure, shortened: as §1

[15] = tested on: NCI-H2087
Procedure, shortened: as §1

[16] = tested on: NCI-H2126
Procedure, shortened: as §1

[17] = tested on: NCI-H2170
Procedure, shortened: as §1

[18] = tested on: NCI-H650
Procedure, shortened: as §1

[19] = tested on: RERF-LC-KJ
Procedure, shortened: as §1

[20] = tested on: SK-MES-1
Procedure, shortened: as §1

[21] = tested on: SW 900
Procedure, shortened: as §1

[22] = tested on: UMC-11
Procedure, shortened: as §1

Compound `CN1CCN(CCOc2cc(OC3CCOCC3)c3c(Nc4c(Cl)ccc5c4OCO5)ncnc3c2)CC1` [Saracatinib] + Cc1cc(Nc2cc(N3CCN(C)CC3)nc(Sc3ccc(NC(=O)C4CC4)cc3)n2)n[nH]1 [Tozasertib] (partner 0.1 µM) has a relative viability ([1]; first compound 0.02 µM) of 0.977, a relative viability ([1]; first compound 0.2 µM) of 0.89 and a relative viability ([1]; first compound 0.6325 µM) of 0.821. It also gave a relative viability ([1]; first compound 2 µM) of 0.686, a relative viability ([2]; first compound 0.02 µM) of 0.518 and a relative viability ([2]; first compound 0.2 µM) of 0.477. It also gave a relative viability ([2]; first compound 0.6325 µM) of 0.458, a relative viability ([2]; first compound 2 µM) of 0.419 and a relative viability ([3]; first compound 0.02 µM) of 0.358. It also gave a relative viability ([3]; first compound 0.2 µM) of 0.323, a relative viability ([3]; first compound 0.6325 µM) of 0.309 and a relative viability ([3]; first compound 2 µM) of 0.282. For the same compound, the relative viability ([4]; first compound 0.02 µM) was 0.265, the relative viability ([4]; first compound 0.2 µM) was 0.256 and the relative viability ([4]; first compound 0.6325 µM) was 0.286. The relative viability ([4]; first compound 2 µM) was 0.271, the relative viability ([5]; first compound 0.02 µM) was 0.621 and the relative viability ([5]; first compound 0.2 µM) was 0.585. The relative viability ([5]; first compound 0.6325 µM) was 0.444, the relative viability ([5]; first compound 2 µM) was 0.291 and the relative viability ([6]; first compound 0.02 µM) was 0.118. For the same compound, the relative viability ([6]; first compound 0.2 µM) was 0.0998, the relative viability ([6]; first compound 0.6325 µM) was 0.0847 and the relative viability ([6]; first compound 2 µM) was 0.0726. The relative viability ([7]; first compound 0.02 µM) was 0.403, the relative viability ([7]; first compound 0.6325 µM) was 0.572 and the relative viability ([7]; first compound 2 µM) was 0.405. It also gave a relative viability ([8]; first compound 0.02 µM) of 0.367, a relative viability ([8]; first compound 0.2 µM) of 0.318 and a relative viability ([8]; first compound 0.6325 µM) of 0.394. For the same compound, the relative viability ([8]; first compound 2 µM) was 0.384, the relative viability ([9]; first compound 0.02 µM) was 0.39 and the relative viability ([9]; first compound 0.2 µM) was 0.427. It also gave a relative viability ([9]; first compound 0.6325 µM) of 0.464, a relative viability ([9]; first compound 2 µM) of 0.408 and a relative viability ([10]; first compound 0.02 µM) of 0.655. The relative viability ([10]; first compound 0.2 µM) was 0.449, the relative viability ([10]; first compound 0.6325 µM) was 0.476 and the relative viability ([10]; first compound 2 µM) was 0.42. For the same compound, the relative viability ([11]; first compound 0.02 µM) was 0.26, the relative viability ([11]; first compound 0.2 µM) was 0.249 and the relative viability ([11]; first compound 0.6325 µM) was 0.226. The relative viability ([11]; first compound 2 µM) was 0.217, the relative viability ([12]; first compound 0.02 µM) was 0.205 and the relative viability ([12]; first compound 0.2 µM) was 0.183. The relative viability ([12]; first compound 0.6325 µM) was 0.164, the relative viability ([12]; first compound 2 µM) was 0.0819 and the relative viability ([13]; first compound 0.02 µM) was 0.722. For the same compound, the relative viability ([13]; first compound 0.2 µM) was 0.763, the relative viability ([13]; first compound 0.6325 µM) was 0.83 and the relative viability ([13]; first compound 2 µM) was 0.619. The relative viability ([14]; first compound 0.02 µM) was 0.6, the relative viability ([14]; first compound 0.2 µM) was 0.559 and the relative viability ([14]; first compound 0.6325 µM) was 0.569. The relative viability ([14]; first compound 2 µM) was 0.576, the relative viability ([15]; first compound 0.02 µM) was 0.224 and the relative viability ([15]; first compound 0.2 µM) was 0.206. For the same compound, the relative viability ([15]; first compound 0.6325 µM) was 0.258, the relative viability ([15]; first compound 2 µM) was 0.231 and the relative viability ([16]; first compound 0.02 µM) was 0.819. It also gave a relative viability ([16]; first compound 0.2 µM) of 0.846, a relative viability ([16]; first compound 0.6325 µM) of 0.815 and a relative viability ([16]; first compound 2 µM) of 0.648. For the same compound, the relative viability ([17]; first compound 0.02 µM) was 0.736, the relative viability ([17]; first compound 0.2 µM) was 0.371 and the relative viability ([17]; first compound 0.6325 µM) was 0.723. For the same compound, the relative viability ([17]; first compound 2 µM) was 0.429, the relative viability ([18]; first compound 0.02 µM) was 0.65 and the relative viability ([18]; first compound 0.2 µM) was 0.656. The relative viability ([18]; first compound 0.6325 µM) was 0.701, the relative viability ([18]; first compound 2 µM) was 0.716 and the relative viability ([19]; first compound 0.02 µM) was 0.52. For the same compound, the relative viability ([19]; first compound 0.2 µM) was 0.465, the relative viability ([19]; first compound 0.6325 µM) was 0.497 and the relative viability ([19]; first compound 2 µM) was 0.363. For the same compound, the relative viability ([20]; first compound 0.02 µM) was 0.868, the relative viability ([20]; first compound 0.2 µM) was 0.836 and the relative viability ([20]; first compound 0.6325 µM) was 0.872. The relative viability ([20]; first compound 2 µM) was 0.666, the relative viability ([21]; first compound 0.02 µM) was 0.546 and the relative viability ([21]; first compound 0.2 µM) was 0.533. The relative viability ([21]; first compound 0.6325 µM) was 0.645, the relative viability ([21]; first compound 2 µM) was 0.532 and the relative viability ([22]; first compound 0.02 µM) was 0.206. For the same compound, the relative viability ([22]; first compound 0.2 µM) was 0.175, the relative viability ([22]; first compound 0.6325 µM) was 0.213 and the relative viability ([22]; first compound 2 µM) was 0.185.
